Results on four compounds are retold here after PMC10060569 (Frontiers in Pharmacology, 2023).

A word on the IC50: it is the concentration at which inhibition is half-maximal. Higher therefore signals weaker potency. Usually inhibition stands for the relative decrease from the control value, in per cent.

In the test the target is T1, S15V-hP2X3R (Homo sapiens, UniProt P56373, S15V).
T1 construct: expressed in transfected cells; host or cells: Xenopus laevis oocytes (cRNA injection)
T1 sequence (P56373 1-397 S15V): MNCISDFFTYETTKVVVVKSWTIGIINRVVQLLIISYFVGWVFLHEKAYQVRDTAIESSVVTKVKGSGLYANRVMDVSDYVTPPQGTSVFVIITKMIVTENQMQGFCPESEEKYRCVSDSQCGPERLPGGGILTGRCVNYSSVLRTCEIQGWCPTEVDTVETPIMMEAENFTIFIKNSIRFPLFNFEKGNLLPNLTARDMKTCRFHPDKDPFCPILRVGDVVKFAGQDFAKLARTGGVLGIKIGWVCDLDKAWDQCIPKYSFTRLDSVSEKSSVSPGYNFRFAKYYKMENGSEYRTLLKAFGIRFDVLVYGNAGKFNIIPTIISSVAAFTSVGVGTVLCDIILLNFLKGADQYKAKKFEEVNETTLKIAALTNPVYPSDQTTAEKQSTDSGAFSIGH
The test can be described thus: TEVC of ATP-induced currents, S15V-hP2X3R expressed in X. laevis oocytes (peak current protocol). Type of test: cell-based. The conditions noted are these: for IC50: 30-s preincubation of antagonist, X. laevis oocytes, −60 mV, geometric mean. From the text: Oocyte expression plasmids encoding the wild-type (wt) and N-terminally His-tagged (His-) fusion constructs of the hP2X2R, hP2X3R, hP2X4R, and hP2X7R, and the mutant His-^20RMVL^23KVIV^23S^26N-hP2X1R, S^15V-rP2X3R, and His-S^15V-hP2X3R were the same as used in previous research ([Hausmann et al., 2006]; [Wolf et al., 2011]; [Hausmann et al., 2014]; [Obrecht et al., 2019]). In most cases, the N-terminal His-tagged variants of P2XRs were used here and in the previous studies to allow biochemical analyses on affinity-purified proteins using the same constructs. Although this was not required for the present study, it allows for better comparability with our previous studies. Capped cRNAs of different P2XRs were already available in the research group or were synthesized as previously described ([Schmalzing et al., 1991]; [Stolz et al., 2015]). cRNA was injected into collagenase-defolliculated X. laevis oocytes in aliquots of 41 nl or 23 nl (see Supplementary Table S1 for the amount of cRNA used for expression of the indicated P2XR) using a Nanoliter 2000 injector (World Precision Instruments, Sarasota, United States of America) as described previously ([Hausmann et al., 2014]; [Stolz et al., 2015]; [Obrecht et al., 2019]). To express the heteromeric hP2X2/3 receptor, cRNAs encoding His-hP2X2R and wt-hP2X3R were coinjected at a ratio (w/w) of 1:6. Oocytes were stored at 19°C in an oocyte ringer solution (ORi^+) containing 90 mM NaCl, 1 mM KCl, 1 mM CaCl2, 1 mM MgCl2, and 10 mM HEPES (Carl Roth, Karlsruhe, Germany) adjusted to pH 7.4 with NaOH and supplemented with 50 μg/ml gentamicin (AppliChem, Darmstadt, Germany). The procedures followed for the maintenance of and the surgical treatment for X. laevis adults were approved by the governmental animal care and use committee of the State Agency for Nature, Environment, and Consumer Protection (LANUV, Recklinghausen, Germany; reference no. 81-02.04.2019. A355), in compliance with Directive 2010/63/EU of the European Parliament and of the Council on the protection of animals used for scientific purpose.
Ion currents mediated by P2X receptors were evoked by the indicated concentration of ATP or α,β-meATP and were recorded 1 or 2 days after cRNA injection at ambient temperature at a holding potential of −60 mV by two-electrode voltage clamp (TEVC) as previously described ([Hausmann et al., 2006]). Calcium-free ORi^− solution (90 mM NaCl, 1 mM KCl, 2 mM MgCl2, 10 mM HEPES, pH 7.4) was used to avoid bias due to calcium-activated chloride channels (CaCC) endogenously expressed in X. laevis oocytes ([Miledi, 1982]; [Methfessel et al., 1986]). For recordings of wt-hP2X7R, the composition of the ORi^− solution was modified according to protocols described previously and contained 100 mM NaCl, 2.5 mM KCl, 1 mM MgCl2, 5 mM HEPES, pH 7.4 ([Klapperstück et al., 2000]). The oocytes were continuously superfused with ORi^− by gravity flow (5–10 ml/min). The agonists ATP or α,β-meATP and the investigated NSAIDs were diluted in ORi^− on the day of the recording. […] A peak current protocol (Supplementary Figure S1) was used to analyze fast- and intermediate desensitizing P2XR subtypes (P2X1R, P2X3R, and S^15V-P2X3R), and a steady-state protocol (Supplementary Figure S2) was used for slowly or partially desensitizing P2X subtypes (P2X2R, P2X2/3R, and P2X4R). For recordings of P2X7R, a modified steady-state protocol was used ([Hausmann et al., 2006]). The application of different bath solutions was controlled by computer-operated magnetic valves controlled by the CellWorks E 5.5.1 software (npi electronic, Tamm, Germany).
Antagonist concentration–response data and IC50 values were calculated by normalizing ATP-induced responses to the control responses (recorded in the presence and absence of the antagonist, respectively). […]

`Cc1c(Nc2ncccc2C(=O)O)cccc1C(F)(F)F` [Flunixin, flunixin] yielded an IC50 (1 µM ATP) of 32.4 µM. Moreover, the inhibition at 1000 µM (1 mM antagonist, 1 µM ATP, mean ± SEM, read-out: Max. inhibition at 1 mM) turned out to be 53%. Besides, the “reversibility of the inhibitory effect by washout” value (subsequent control current after washout) is recorded as “not reversible”.

With `CC(C)Cc1ccc(C(C)C(=O)O)cc1` (stereo not drawn) [Ibuprofen, ibuprofen], for the setting “1 µM ATP”, the IC50 was > 300 µM and the “reduction of ATP-induced current amplitude at 100 µM antagonist” value (“reduction” for short) was 15%–18%.

Turning to `Cc1ccc(Cl)c(Nc2ccccc2C(=O)O)c1Cl` [Meclofenamic acid, meclofenamic acid], for the setting “1 µM ATP”, the IC50 is > 300 µM and the “reduction” value is recorded as 15%–18%.

For `COc1ccc2cc([C@H](C)C(=O)O)ccc2c1` [Naproxen, naproxen], where the note is “1 µM ATP”, the IC50 is > 300 µM and the “reduction” value is 15%–18%.
